What all share (test): MTT assay (metabolic activity)
One assay relates to A2058. It counts as cell-based, human. The following applies: Homo sapiens; A2058, 72 h incubation. The procedure: (§1) Cell lines A2058 (human melanoma lymph node metastasis, cat. 91100402) from ECACC (Public Health England, Salisbury, UK) and BLM (human melanoma lung metastasis a gift from prof. K. Smetana, Institute of Anatomy, Charles University in Prague) were cultured in a medium consisting of high glucose Dulbecco’s Modified Eagle’s Medium (DMEM) and sodium pyruvate (GE Healthcare, Piscataway, NJ, USA). The growth medium was supplemented with a 10% fetal bovine serum (FBS) and antibiotic/antimycotic solution 1 × HyClone™ (GE Healthcare, Chicago, IL, USA). The MCF-10A (human mammary epithelial cells) cell line was cultured in a medium consisting of high glucose Dulbecco’s Modified Eagle’s Medium F12 (DMEM/F12) (Biosera, Kansas City, MO, USA). The growth medium was supplemented with a 10% FBS, antibiotic/antimycotic solution 1 × HyClone™ (GE Healthcare, Chicago, IL, USA), epidermal growth factor (EGF) (20 ng/mL final), hydrocortisone (0.5 μg/mL final) and insulin (10 μg/mL final) (Sigma-Aldrich Chemie, Steinheim, Germany). Cells were cultured in humidified air at 37 °C with atmosphere containing 5% CO2.
(§2) The half-maximal inhibitory concentration values (IC50) and metabolism inhibition of tested synthetic chalcone derivatives were determined by MTT (3-(4,5-di-methylthiazol-2-yl)2,5-diphenyltetrazolium bromide) colorimetric assay (Sigma-Aldrich Chemie, Steinheim, Germany). Tested cell lines were seeded at a density of 5 × 10^3 cells/well in 96-well culture plates. After 24 h, the tested chalcones in concentrations of 100, 50 and 10 μmol/L were added and incubation proceeded for the next 72 h. In the next step, 10 μL of MTT (5 mg/mL) was added to each well containing cells and incubated for another 4 h at 37 °C during which MTT was metabolized to insoluble formazan in cells. After 4 h, 100 μL of a 10% sodium dodecyl sulphate (SDS) was added to each well and another 24 h were allowed for the formazan crystals to dissolve. The metabolic activity of cells was evaluated by measuring the absorbance at wavelength 540 nm using the automated Cytation™ 3 Cell Imaging Multi-Mode Reader (Biotek, Winooski, VT, USA). Three independent analyses were performed.

The test system of a further assay is BLM. It counts as cell-based, human. The following applies: Homo sapiens; BLM, 72 h incubation. As to the method:
as §1, §2

In another assay the test system is MCF-10A. It counts as cell-based. The following applies: Homo sapiens; MCF-10A noncancer cell line, 72 h incubation. The procedure: as §1, §2

In publication PMC9603750, “Chalcone-Acridine Hybrid Suppresses Melanoma Cell Progression via G2/M Cell Cycle Arrest, DNA Damage, Apoptosis, and Modulation of MAP Kinases Activity” (International Journal of Molecular Sciences, 2022) one finds IC50 data, which are given here for 6 compounds.

As for `COn1cc(/C=C/C(=O)c2ccccc2F)c2ccccc21` [ZKCH-11A, (2E)-1-(2-fluorophenyl)-3-(1-methoxy-1H-indol-3-yl)prop-2-en-1-one], the IC50 in the assay with A2058 stood at 31.9 ± 0.95 µM; with BLM it was 35.3 ± 6.1 µM; in the assay on MCF-10A, 85 ± 2.19 µM.

In the case of `CCOc1[nH]c2ccccc2c1/C=C/C(=O)c1ccccc1F` [ZKCH-11C, (2E)-3-(2-ethoxy-1H-indol-3-yl)-1-(2-fluorophenyl)prop-2-en-1-one], the IC50 in the assay on A2058 is 41.6 ± 0.73 µM; in the assay on BLM it was 38.55 ± 0.06 µM; in the assay on MCF-10A, > 100 µM.

Take `CC(C)Oc1[nH]c2ccccc2c1/C=C/C(=O)c1ccccc1F` [ZKCH-11E, (2E)-1-(2-fluorophenyl)-3-[2-(propan-2-yloxy)-1H-indol-3-yl]prop-2-en-1-one]: the 50% inhibitory concentration (IC50) with A2058 was determined as 37.3 ± 2.28 µM; in the assay on BLM, 33.8 ± 2.14 µM; in the assay with MCF-10A it was 44.7 ± 4.96 µM.

Regarding `CCCCOc1[nH]c2ccccc2c1/C=C/C(=O)c1ccccc1F` [ZKCH-11F, (2E)-3-(2-butoxy-1H-indol-3-yl)-1-(2-fluorophenyl)prop-2-en-1-one], the IC50 is 45.8 ± 2.54 µM in the assay with A2058, 47.7 ± 1.49 µM in the assay with BLM and > 100 µM in the assay on MCF-10A.

Turning to `CC(C)COc1[nH]c2ccccc2c1/C=C/C(=O)c1ccccc1F` [ZKCH-11G, (2E)-1-(2-fluorophenyl)-3-[2-(2-methylpropoxy)-1H-indol-3-yl]prop-2-en-1-one], the IC50 is 40 ± 1.37 µM with A2058, 39.5 ± 3.9 µM with BLM and 51.3 ± 3.94 µM with MCF-10A.

`O=C(/C=C/c1c[nH]c2ccccc12)c1ccccc1F` [ZKCH-11H, (2E)-1-(2-fluorophenyl)-3-(1H-indol-3-yl)prop-2-en-1-one]: the IC50 in the assay with A2058 is 42.4 ± 2.98 µM; in the assay with BLM, 40.9 ± 2.62 µM; in the assay with MCF-10A it was 60.7 ± 3.09 µM.
